Here are results for 23 compounds from patent US20230192705A1, “SHP2 INHIBITORS, COMPOSITIONS AND USES THEREOF” (Betta Pharmaceuticals Co., Ltd, priority 2020, published 2023).

Usually IC50 stands for the concentration at which inhibition is half-maximal.

The experiment has as its target T1, SHP2 (Homo sapiens, UniProt Q06124).
T1 sequence (Q06124 1-593): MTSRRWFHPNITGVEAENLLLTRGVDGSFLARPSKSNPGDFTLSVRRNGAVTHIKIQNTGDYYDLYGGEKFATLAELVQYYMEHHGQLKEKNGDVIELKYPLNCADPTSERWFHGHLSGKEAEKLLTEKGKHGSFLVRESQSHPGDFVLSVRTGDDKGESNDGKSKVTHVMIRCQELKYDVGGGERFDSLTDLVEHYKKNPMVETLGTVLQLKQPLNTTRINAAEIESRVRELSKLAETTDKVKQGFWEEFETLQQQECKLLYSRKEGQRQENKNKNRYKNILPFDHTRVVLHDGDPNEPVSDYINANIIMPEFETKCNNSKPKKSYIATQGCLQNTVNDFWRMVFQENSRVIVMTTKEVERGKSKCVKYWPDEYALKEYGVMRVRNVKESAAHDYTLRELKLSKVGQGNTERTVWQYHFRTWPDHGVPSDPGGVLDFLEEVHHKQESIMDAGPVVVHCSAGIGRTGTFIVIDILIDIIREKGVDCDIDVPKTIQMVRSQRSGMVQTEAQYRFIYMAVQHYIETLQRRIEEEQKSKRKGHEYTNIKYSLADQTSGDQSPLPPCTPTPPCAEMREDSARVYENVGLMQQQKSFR
As to the kind of experiment: SHP2 allosteric inhibitor enzyme activity assay (DiFMUP fluorescence). It counts as biochemical. The settings on record: class symbols. The method, boiled down: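 SHP2 activated by 0.5 μM IRS1_pY1172(dPEG8)pY1222 peptide, 0.2 ng enzyme per well, 1 h at room temperature with compound (1 μM top, 3-fold series), then DiFMUP substrate 1 h. Buffer: 60 mM HEPES, 75 mM NaCl, 75 mM KCl, 0.05% BRIJ-35, 1 mM EDTA, 5 mM DTT. Fluorescence ex 340/em 450 nm; IC50 by variable-slope fit.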
As for `C[C@@H]1OCC2(CCN(c3cnc4c(C5(c6ccccc6)CC5)c[nH]c4n3)CC2)[C@@H]1N` [Example 269, (3S,4S)-3-methyl-8-(7-(1-phenylcyclopropyl)-5H-pyrrolo[2,3-b]pyrazin-3-yl)-2-oxa-8-azaspiro[4.5]decan-4-amine], the IC50 was > 60 nM.
As for `N[C@@H]1c2ccccc2CC12CCN(c1nc3[nH]nc(C4(c5ccccc5OC(F)(F)F)CC4)c3c(=O)[nH]1)CC2` [Example 16, (S)-6-(1-amino-1,3-dihydrospiro[indene-2,4′-piperidin]-1′-yl)-3-(1-(2-(trifluoromethoxy)phenyl)cyclo-propyl)-1,5-dihydro-4H-pyrazolo[3,4-d]pyrimidin-4-one], the IC50 was ≤ 20 nM.
For `N[C@@H]1c2ccccc2CC12CCN(c1nc3[nH]nc(C4=CCCc5nc(C6CC6)cc(C(F)(F)F)c54)c3c(=O)[nH]1)CC2` [Example 141, (S)-6-(1-amino-1,3-dihydrospiro[indene-2,4′-piperidin]-1′-yl)-3-(2-cyclopropyl-4-(trifluoromethyl)-7,8-dihydroquinolin-5-yl)-1,5-dihydro-4H-pyrazolo[3,4-d]pyrimidin-4-one], the IC50 lay in the range of 20 to 60 nM.
To `COc1cc(C2(c3n[nH]c4nc(N5CCC6(CC5)Cc5ccccc5[C@H]6N)[nH]c(=O)c34)CC2)ccn1` [Example 28, (S)-6-(1-amino-1,3-dihydrospiro[indene-2,4′-piperidin]-1′-yl)-3-(1-(2-methoxypyridin-4-yl)cyclopropyl)-1,5-dihydro-4H-pyrazolo[3,4-d]pyrimidin-4-one] belongs ≤ 20 nM; to `N[C@@H]1c2ccccc2CC12CCN(c1nc3[nH]nc(C4(c5ccccc5)CCOCC4)c3c(=O)[nH]1)CC2` [Example 100, (S)-6-(1-amino-1,3-dihydrospiro[indene-2,4′-piperidin]-1′-yl)-3-(4-phenyltetrahydro-2H-pyran-4-yl)-1,5-dihydro-4H-pyrazolo[3,4-d]pyrimidin-4-one], 20 to 60 nM; to `N[C@@H]1c2ccccc2CC12CCN(c1nc3[nH]nc(C4(c5cnnc(Cl)c5)CC4)c3c(=O)[nH]1)CC2` [Example 70, (S)-6-(1-amino-1,3-dihydrospiro[indene-2,4′-piperidin]-1′-yl)-3-(1-(6-chloropyridazin-4-yl)cyclopropyl)-1,5-dihydro-4H-pyrazolo[3,4-d]pyrimidin-4-one], ≤ 20 nM.
As for `N[C@@H]1c2ccccc2CC12CCN(c1nc3[nH]nc(C4=CS(=O)(=O)Nc5ccccc54)c3c(=O)[nH]1)CC2` [Example 183, (S)-6-(1-amino-1,3-dihydrospiro[indene-2,4′-piperidin]-1′-yl)-3-(2,2-dioxido-1H-benzo[c][1,2]thiazin-4-yl)-1,5-dihydro-4H-pyrazolo[3,4-d]pyrimidin-4-one], the IC50 is ≤ 20 nM.
With `CC1(C)C=C(c2n[nH]c3nc(N4CCC5(CC4)Cc4ccccc4[C@H]5N)[nH]c(=O)c23)c2ccccc21` [Example 176, (S)-6-(1-amino-1,3-dihydrospiro[indene-2,4′-piperidin]-1′-yl)-3-(1,1-dimethyl-1H-inden-3-yl)-1,5-dihydro-4H-pyrazolo[3,4-d]pyrimidin-4-one], the 50% inhibitory concentration (IC50) is ≤ 20 nM.
Consider `CC1(C)C=C(c2n[nH]c3nc(N4CCC5(CC4)Cc4ccccc4[C@H]5N)[nH]c(=O)c23)c2cc(C#N)cnc2C1` [Example 163, (S)-5-(6-(1-amino-1,3-dihydrospiro[indene-2,4′-piperidin]-1′-yl)-4-oxo-4,5-dihydro-1H-pyrazolo[3,4-d]pyrimidin-3-yl)-7,7-dimethyl-7,8-dihydroquinoline-3-carbonitrile], for which the IC50 was ≤ 20 nM.
With `C[C@@H]1OCC2(CCN(c3nc4[nH]nc(C5(c6ccnc(N)c6Cl)CC5)c4c(=O)[nH]3)CC2)[C@@H]1N` [Example 291, 3-(1-(2-amino-3-chloropyridin-4-yl)cyclopropyl)-6-((3S,4S)-4-amino-3-methyl-2-oxa-8-azaspiro[4.5]decan-8-yl)-1,5-dihydro-4H-pyrazolo[3,4-d]pyrimidin-4-one] the figure was 20 to 60 nM; with `C[C@@H]1OCC2(CCN(c3nc4[nH]nc(C5(c6ccccc6)CC5)c4c(=O)n3C)CC2)[C@@H]1N` [Example 272, 6-((3S,4S)-4-amino-3-methyl-2-oxa-8-azaspiro[4.5]decan-8-yl)-5-methyl-3-(1-phenylcyclopropyl)-1,5-dihydro-4H-pyrazolo[3,4-d]pyrimidin-4-one], 20 to 60 nM; with `COc1ccc(C2(c3n[nH]c4nc(N5CCC6(CC5)Cc5ccccc5[C@H]6N)[nH]c(=O)c34)CC2)c(OC)c1` [Example 232, (S)-6-(1-amino-1,3-dihydrospiro[indene-2,4′-piperidin]-1′-yl)-3-(1-(2,4-dimethoxyphenyl)cyclopropyl)-1,5-dihydro-4H-pyrazolo[3,4-d]pyrimidin-4-one], ≤ 20 nM.
To `N[C@@H]1c2ccccc2CC12CCN(c1nc3[nH]nc(C4(c5ccnc(N6CCC6)c5Cl)CC4)c3c(=O)[nH]1)CC2` [Example 66, (S)-6-(1-amino-1,3-dihydrospiro[indene-2,4′-piperidin]-1′-yl)-3-(1-(2-(azetidin-1-yl)-3-chloropyridin-4-yl)cyclopropyl)-1,5-dihydro-4H-pyrazolo[3,4-d]pyrimidin-4-one] belongs ≤ 20 nM.
Take `N[C@@H]1c2ccccc2CC12CCN(c1nc3[nH]nc(C4(c5ccnc(Cl)c5Cl)CC4)c3c(=O)[nH]1)CC2` [Example 48, (S)-6-(1-amino-1,3-dihydrospiro[indene-2,4′-piperidin]-1′-yl)-3-(1-(2,3-dichloropyridin-4-yl)cyclopropyl)-1,5-dihydro-4H-pyrazolo[3,4-d]pyrimidin-4-one]: the IC50 is ≤ 20 nM.
For the compound `N[C@@H]1c2ccccc2CC12CCN(c1nc3[nH]nc(C4=CCS(=O)(=O)c5ccccc54)c3c(=O)[nH]1)CC2` [Example 180, (S)-6-(1-amino-1,3-dihydrospiro[indene-2,4′-piperidin]-1′-yl)-3-(1,1-dioxido-2H-thiochromen-4-yl)-1,5-dihydro-4H-pyrazolo[3,4-d]pyrimidin-4-one], the IC50 was ≤ 20 nM.
As to `Cc1csc(C2(c3n[nH]c4nc(N5CCC6(CC5)CO[C@@H](C)[C@H]6N)[nH]c(=O)c34)CC2)n1` [Example 318, 6-((3S,4S)-4-amino-3-methyl-2-oxa-8-azaspiro[4.5]decan-8-yl)-3-(1-(4-methylthiazol-2-yl)cyclopropyl)-1,5-dihydro-4H-pyrazolo[3,4-d]pyrimidin-4-one], the IC50 fell in the range of 20 to 60 nM.
To `Cn1c(N2CCC3(CC2)Cc2ccccc2[C@H]3N)nc2[nH]nc(C3(c4ccccc4)CCC3)c2c1=O` [Example 91, (S)-6-(1-amino-1,3-dihydrospiro[indene-2,4′-piperidin]-1′-yl)-5-methyl-3-(1-phenylcyclobutyl)-1,5-dihydro-4H-pyrazolo[3,4-d]pyrimidin-4-one] belongs ≤ 20 nM.
With `N[C@@H]1c2ccccc2CC12CCN(c1nc3[nH]nc(C4=CCCc5ccccc54)c3c(=O)[nH]1)CC2` [Example 111, (S)-6-(1-amino-1,3-dihydrospiro[indene-2,4′-piperidin]-1′-yl)-3-(3,4-dihydronaphthalen-1-yl)-1,5-dihydro-4H-pyrazolo[3,4-d]pyrimidin-4-one], the IC50 is ≤ 20 nM.
On to `Cc1ncccc1C1(c2n[nH]c3nc(N4CCC5(CC4)Cc4ccccc4[C@H]5N)[nH]c(=O)c23)CC1` [Example 89], for which the IC50 was ≤ 20 nM.
On to `C[C@@H]1OCC2(CCN(c3ncc(C4(c5ccccc5)CC4)c(=O)[nH]3)CC2)[C@@H]1N` [Example 262, 2-((3S,4S)-4-amino-3-methyl-2-oxa-8-azaspiro[4.5]decan-8-yl)-5-(1-phenylcyclopropyl)pyrimidin-4(3H)-one], for which the IC50 was > 60 nM.
As to `N[C@@H]1c2ccccc2CC12CCN(c1nc3[nH]nc(C4(c5ccnc(NC6CC6)c5Cl)CC4)c3c(=O)[nH]1)CC2` [Example 72, (S)-6-(1-amino-1,3-dihydrospiro[indene-2,4′-piperidin]-1′-yl)-3-(1-(3-chloro-2-(cyclopropylamino)pyridin-4-yl)cyclopropyl)-1,5-dihydro-4H-pyrazolo[3,4-d]pyrimidin-4-one], the IC50 is ≤ 20 nM.
`N[C@@H]1c2ccccc2CC12CCN(c1nc3[nH]nc(C4(c5coc6ccccc56)CC4)c3c(=O)[nH]1)CC2` [Example 250, (S)-6-(1-amino-1,3-dihydrospiro[indene-2,4′-piperidin]-1′-yl)-3-(1-(benzofuran-3-yl)cyclopropyl)-1,5-dihydro-4H-pyrazolo[3,4-d]pyrimidin-4-one]: the IC50 was ≤ 20 nM.
As to `N[C@@H]1c2ccccc2CC12CCN(c1nc3[nH]nc(C4(c5ccnc(Cl)c5)CC4)c3c(=O)[nH]1)CC2` [Example 25, (S)-6-(1-amino-1,3-dihydrospiro[indene-2,4′-piperidin]-1′-yl)-3-(1-(2-chloropyridin-4-yl)cyclopropyl)-1,5-dihydro-4H-pyrazolo[3,4-d]pyrimidin-4-one], the IC50 is ≤ 20 nM.
